Assay results published in patent US20220142948A1, “COMPOSITIONS AND METHODS FOR MODULATING METABOLIC REGULATORS OF T CELL PATHOGENICITY” (The Broad Institute, Inc., priority 2019, published 2022).
“Also recorded” adds a separate entry of the source.

What was measured:
ODC = target: T1, ODC (Homo sapiens, UniProt P11926); conditions: cited from earlier work
T1 sequence (P11926 1-461): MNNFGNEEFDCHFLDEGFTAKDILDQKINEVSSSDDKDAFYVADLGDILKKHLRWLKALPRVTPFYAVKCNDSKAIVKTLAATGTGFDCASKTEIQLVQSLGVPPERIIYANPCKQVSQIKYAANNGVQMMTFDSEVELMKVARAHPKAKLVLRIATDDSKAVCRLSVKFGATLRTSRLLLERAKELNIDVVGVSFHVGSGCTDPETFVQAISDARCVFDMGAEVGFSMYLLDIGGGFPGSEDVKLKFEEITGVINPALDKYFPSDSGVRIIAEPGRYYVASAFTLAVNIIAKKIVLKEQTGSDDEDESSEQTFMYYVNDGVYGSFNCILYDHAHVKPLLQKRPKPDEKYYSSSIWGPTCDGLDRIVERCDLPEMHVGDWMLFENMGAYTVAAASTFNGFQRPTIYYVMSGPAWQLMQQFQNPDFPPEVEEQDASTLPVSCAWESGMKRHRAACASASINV

[1] = tested on: cellular polyamines in Th17p, Th17n and iTregs; experiment: Total cellular polyamine content (enzymatic assay, Total Polyamine Assay Kit); type: cell-based, mouse
From the text: Polyamine ELISA. Cell pellets of in vitro differentiated cells were frozen down and further processed with the Total Polyamine Assay Kit (BioVision Inc.) according to the manufacturer's instructions.

[2] = tested on: Th17 cells (Th17n, Th17p); experiment: Legendplex analysis of cytokines in culture supernatant; type: cell-based, mouse
Description: Legendplex. Cytokine concentrations in supernatants of in vitro cultures were analyzed by the LegendPlex Mouse Th Cytokine Panel (13-plex) (BioLegend) according to the manufacturer's instructions and analyzed on a FACS LSR II (BD Biosciences).
Seahorse assay was performed and seahorse media was prepared following manufacturer instructions (Agilent). Cells were re-stimulated with PMA/ionomycin for four hours in the presence of brefaldin and monensin before analysis for cytokines by intracellular cytokine staining. Cytokine concentrations in supernatants of in vitro cultures were analyzed by the LegendPlex Mouse Th Cytokine Panel (13-plex) (BioLegend) according to the manufacturer's instructions and analyzed on a FACS LSR II (BD Biosciences).

[3] = tested on: Th17 cells (Th17n, Th17p); experiment: qPCR of in vitro differentiated T cells; type: cell-based, mouse
Description: qPCR. RNA was isolated using RNeasy Plus Mini Kit (Qiagen) and reverse transcribed to cDNA with iScript cDNA Synthesis Kit (Bio-Rad). Gene expression was analyzed by quantitative real-time PCR on a ViiA7 System (Thermo Fisher Scientific) using TaqMan Fast
Advanced Master Mix (Thermo Fisher Scientific) with the following primer/probe sets: Il-17a (Mm00439618_m1), Il-17f (Mm00521423_m1), Foxp3 (Mm00475162_m1), Tead1 (Mm00493507_m1), Taz (Mm00504978_m1), Sat1 (Mm00485911_g1) and Actb (Applied Biosystems). Expression values were calculated relative to Actb detected in the same sample by duplex qPCR.
qPCR. RNA was isolated using RNeasy Plus Mini Kit (Qiagen) and reverse transcribed to cDNA with iScript cDNA Synthesis Kit (Bio-Rad). Gene expression was analyzed by quantitative real-time PCR on a ViiA7 System (Thermo Fisher Scientific) using TaqMan Fast Advanced Master Mix (Thermo Fisher Scientific) with the following primer/probe sets: Ass1 (Mm00711256_m1), Odc1 (Mm02019269_g1), Sat1 (Mm00485911_g1), Srm (Mm00726089_s1), Sms (Mm00786246_s1), Il-17a (Mm00439618_m1), Il-17f (Mm00521423_m1), Foxp3 (Mm00475162_m1), Tead1 (Mm00493507_m1), Taz (Mm00504978_m1), and Actb (Applied Biosystems). Expression values were calculated relative to Actb detected in the same sample by duplex qPCR.

[4] = tested on: experimental autoimmune encephalomyelitis (EAE); experiment: Adoptive transfer EAE with 2D2 TCR-transgenic Th17 cells differentiated in the presence of inhibitor; type: in vivo, mouse
From the text: For adoptive transfer EAE, naïve 2D2 transgenic T cells were sorted and differentiated into Th17n cells+/−EGCG or Th17p+/−DHEA as described for three days followed by a resting phase in the presence of IL-23 alone for 2 days. Cells were then harvested and restimulated with plate-bound anti-CD3 and anti-CD28 for 2 days prior to transfer. 2-8 million cells were transferred per mouse intravenously.
For adoptive transfer EAE, naive T cells (CD4+CD44-CD62L+CD25-) were isolated from 2D2 TCR-transgenic mice and activated with anti-CD3 ([…]) and anti-CD28 ([…]) in the presence of differentiation cytokines for 68h. Cells were rested for 2 days and restimulated with plate-bound anti-CD3 (0.5 mg/ml for pathogenic condition; […] for non-pathogenic condition) and anti-CD28 ([…]) for 2 days prior to transfer. Equal number (2 to 8 million) cells were transferred per mouse intravenously.

[5] = tested on: PGAM in Th17n and Th17p cells; experiment: 13C-glucose carbon tracing by LC/MS; type: cell-based, mouse
Description: For carbon tracing experiments Th17 cells were differentiated as described. Thereafter, cells were washed and cultured in media supplemented with 8 mM [U-13C]-glucose for 15 min or 3 hrs.
Let |Ci| be the number of carbon atoms in metabolite i, and let xc,i,j be the measured signal of metabolite i in sample j (subsequent to all normalization and QC procedures) in which there are exactly c 13C atoms. The comparisons of carbon flows are based on the statistic yi,j=(Σt=0^|C^i^|t·xt,i,j)/(|Ci|·Σt=0^|C^i^|xt,i,j)
which measures the 13C ratio of the total carbon contents for metabolite i in sample j.
To find metabolites with differential 13C relative abundance, Applicants computed the ratio yi,j of 13C out of the total carbon contents for each metabolite i in sample j. Let |Ci| be the number of carbon atoms in metabolite i, and let xc,i,j be the measured signal of metabolite i in sample j (subsequent to all normalization and QC procedures) in which there are exactly c 13C atoms.

[6] = supernatant from both Th17n and Th17p cultures
[7] = non-pathogenic and pathogenic Th17 cells

Question: What does the source list for NCCC[C@](N)(C(=O)O)C(F)F [DFMO, 2-(difluoromethyl)ornithine]?
Answer: uptake of exogenous putrescine (ODC; cells treated in vivo with DFMO): significantly increase; ODC activity (ODC; in vivo): irreversibly inhibit; polyamine concentration ([1]; Th17n cells): decrease; also recorded: suppression of polyamines; polyamine concentration ([1]; Th17p cells): decrease; also recorded: suppression of polyamines; polyamine concentration ([1]; iTregs): decrease; also recorded: suppression of polyamines; DFMO-dependent upregulation of IL-10 ([2]; Th17n cells, loss of JMJD3, supernatant): reduced; IL-13 ([2]; pathogenic Th17 cells): decreased; IL-9 ([2]; protein, Th17n and Th17p cultures): promoted; also recorded: promoting; IL-17A [2, 6]: significantly inhibited; IL-17F [2, 6]: significantly inhibited; IFNg ([2]; supernatant, Th17n and Th17p): did not consistently influence; IL-5 ([2]; supernatant, Th17n and Th17p): did not consistently influence; IL-10 ([2]; supernatant, Th17n and Th17p): did not consistently influence; IL-13 ([2]; supernatant, Th17n and Th17p): did not consistently influence; TNFa ([2]; supernatant, Th17n and Th17p): did not consistently influence; Ass1 expression [3]: specifically suppresses; IL-17 (quantitative real time PCR) ([3]; CD4 T cells): decreased; SAT1 expression ([3]; T cells, Th17n and Th17p): reduces the expression; also recorded: decrease; also recorded: specifically suppresses; also recorded: decreases expression; also recorded: consistently suppressed; relative expression of Foxp3 [3, 7]: increase; relative expression of IL17A [3, 7]: decrease; relative expression of IL17F [3, 7]: decrease; SAT1 expression ([3]; pathogenic Th17 cells): decreased expression

Question: Which “cytokine profile / cytokine production” value ([2]; glycolysis enzyme inhibitors, Th17 cell cultures) does the source give for epigallocatechin-3-gallate [EGCG] here?
Answer: retained their cytokine profile

Question: What about the “optic neuritis/perineuritis in host mice” value ([4]; EGCG on Th17n, DHEA on Th17p) of the same compound?
Answer: promoted

Question: And the EAE severity ([4]; Th17n cells with IL-23 in differentiation culture, vs IL-23+solvent)?
Answer: significantly more severe EAE

Question: What about the “number of CNS lesions (meninges and parenchyma)” value ([4]; Th17n transfer) of the same compound?
Answer: increased number of CNS lesions

Question: And the “Wallerian degeneration in proximal spinal nerve roots” value ([4]; mouse, in vivo)?
Answer: only experimental group to produce Wallerian degeneration; also recorded: induce Wallerian degeneration; also recorded: greater

Question: And the EAE incidence rate ([4]; recipients of EGCG-treated Th17n cells, control group 0/12)?
Answer: 10/12

Question: What about the meningeal inflammation ([4]; vs. Control mice) of the same compound?
Answer: greater meningeal inflammation

Question: What about the “13C contents of 2PG” value ([5]; Th17n and Th17p) of the same compound?
Answer: decrease; also recorded: disturbs

Question: What about the “13C ratio of 2PG after EGCG” value ([5]; Th17p) of the same compound?
Answer: 33%
